{
  "source": "patent EP1071411B1",
  "about": "“TOPICAL IMMUNOSTIMULATION TO INDUCE LANGERHANS CELL MIGRATION” (TORREY PINES INSTITUTE FOR MOLECULAR STUDIES, priority 1998, dated 1999)",
  "key": {"EG7-OVA cells": {"test_system": "EG7-OVA cells", "assay": "Tumor-specific immunity after topical vaccination, subcutaneous tumor challenge, tumor size", "type": "in vivo, C57BL/6", "settings": "for inhibiting tumor cell growth: Figure 4", "experimental": "(§1) The C57BL/6 thymoma tumor cell line, EL4, was transfected with the complete gene for chicken ovalbumin (OVA). The resulting transfected cell line, EG7-OVA, expresses chicken ovalbumin. […] Based on the positive results using FITC, the inventors followed a similar protocol in an attempt to induce immunity to the EG7-OVA tumor by topical administration of the well-characterized, synthetic […] tumor-associated peptide.\nC57BU6 mice were treated as follows: 1) shaving alone; 2) topical administration of acetone and dibutylphthalate; 3) […] (240 :g/ml) in DMSO diluted in PBS, followed in 5 hours by acetone and dibutylphthalate; and 4) […] (240 :g/ml) in acetone and dibutylphthalate. All mice were subsequently injected subcutaneously with 5 × 10^5 EG7-OVA cells (5-times the minimal tumorogenic dose). Tumor-specific immunity was monitored by measuring tumor size.\n(§2) The mucous membranes lack the tough barrier posed by the stratum corneum. […] The EL4 parent tumor cell line, lacking chicken ovalbumin, was used as a […]; no immunity against the EL4 tumor cells was seen. Thus, the inventors' hypothesis regarding penetration of the stratum corneum was confirmed; the […] peptide was not reaching the Langerhans cells underlying the stratum corneum.\nWhile intravaginal topical administration of tumor antigen provided an effective means of routing antigen to the Langerhans cells for subsequent induction of tumor-specific immunity, mucous membrane application sites, like the vagina, are not well-suited for convenient use and monitoring by general practitioners likely to be involved in administering the topical vaccinations of the present invention. Thus, to enhance the effectiveness of cutaneous topical administration, […] was dissolved in DMSO and applied to the skin without dilution. Dibutylphthalate in acetone was applied to the same site 5 hr later. All mice were subsequently injected subcutaneously with 5 x 10^5 EG7-OVA cells. The results shown in Figure 6 indicate that the peptide in DMSO was able to traverse the stratum corneum, effectively gaining access to the Langerhans cells. Tumor growth was suppressed after 6 to 9 days and even the established tumors were completely eliminated by 16 days post-inoculation. Thus, the tumor specific peptide, […], in concentrated DMSO, penetrated the stratum corneum, was incorporated into the MHC class I molecule K^b on epidermal Langerhans cells, and in the presence of the migration inducer, dibutylphthalate, was effectively presented to CD8+ CTLs in the lymph nodes."}, "EL4 tumor cells": {"test_system": "EL4 tumor cells", "assay": "Specificity control of intravaginal topical vaccination, parent tumor challenge", "type": "in vivo, C57BL/6", "settings": "intravaginal topical application, SIINFEKL in acetone and dibutylphthalate; Figure 5", "description": "as §1, §2"}, "Langerhans cells": {"test_system": "Langerhans cells", "assay": "FITC Langerhans cell migration screening, draining inguinal lymph node, flow cytometry", "type": "in vivo, C57BL/6 mice", "settings": "for Total MHC class II^th cells, distance from the positive control, dibutylphthalate (DBP): 5 mg/ml FITC in acetone and migration inducer, 100 µl, after 2 days, Figure 7; for FITC+ Langerhans cell number / total dendritic cell migration into the lymph node / nonspecific immigration: agent added to topical FITC in acetone, 2 days after treatment, Figure 1", "description": "Fluorescein isothiocyanate (FITC) has been used extensively by the inventor and others, to characterize Langerhans cell migration. FITC is a small (mw 389) non-peptide, largely lipophilic molecule, capable of crossing the stratum corneum. Immunogenicity of FITC is due to the reactivity of its isothiocyanate group (-N-C-S) with free amino groups, permitting it to be covalently bound to proteins and/or peptides. C57BL/6 mice received the following treatments: 1) none; 2) abdomen shaving only; 3) topical administration of FITC in acetone; 4) topical administration of FITC in acetone and olive oil; 5) topical administration of FITC in acetone and DMSO diluted in phosphate buffered saline (PBS); and 6) topical administration of FITC in acetone and dibutylphthalate. The draining inguinal lymph nodes were then examined for immigrant Langerhans cells by immunofluorescent flow cytometry each day thereafter. Migratory Langerhans cells were identified by the presence of FITC and expression of high MHC class II molecules or by a Langerhans cell-specific monoclonal antibody (NLDC-145). Other dendritic cell residents of the lymph nodes could also be differentiated using a dendritic cell-specific monoclonal antibody, 33D1. The uptake of FITC and the Langerhans cell response to migratory signals were observable in the draining lymph node as early as six hours after topical administration. However, 48-72 hours was required for maximal rate of immigration into the lymph node. Figure 1 illustrates the effect of the various treatment regimens on total and FITC + lymphoid dendritic cells 2 days after treatment. […] Thus, dibutylphthalate was a very potent migration inducer.\nHigh numbers of FITC+ Langerhans cells were present in the lymph node by 12 hours and the peak frequency of immigrant FITC+ Langerhans cells occurred about 2 to 3 days following topical administration. […] The unlabeled dendritic cells were most likely Langerhans cells that had lost the FITC label. Five days after skin painting, the lymph node cell population had increased by approximately 7.2 fold over baseline levels.\nCompounds which are useful as inducers of Langerhans cell migration may be screened using the standard FITC methods described for the data presented in Figures 1-3. C57BL6 mice are shaved on their abdomens and painted with 100 µl test solution, containing 5 mg/ml FITC in a 50150 (v/v) mixture of acetone and the migration inducer (e.g. dibutylphthalate). After 2 days, the draining inguinal lymph node is removed and the total number of dendritic cells (both FITC+ and FITC-) is determined by flow cytometry and MHC class II immunoassay."}, "[1]": {"settings": "iontophoresis; cited from earlier work"}},
  "data": [
    {"compound": "CC[C@H](C)[C@H](NC(=O)[C@@H](NC(=O)[C@@H](N)CO)[C@@H](C)CC)C(=O)N[C@@H](CC(N)=O)C(=O)N[C@@H](Cc1ccccc1)C(=O)N[C@@H](CCC(=O)O)C(=O)N[C@@H](CCCCN)C(=O)N[C@@H](CC(C)C)C(=O)O", "values": [
      {"measurement": "inhibiting tumor cell growth", "setting": "EG7-OVA cells; cutaneous, SIINFEKL (240 :g/ml) in DMSO diluted in PBS, followed in 5 hours by acetone and dibutylphthalate", "result": "none of the treatment protocols were effective"},
      {"measurement": "inhibiting tumor cell growth", "setting": "EG7-OVA cells; cutaneous, SIINFEKL (240 :g/ml) in acetone and dibutylphthalate", "result": "none of the treatment protocols were effective"},
      {"measurement": "time by which established tumors were completely eliminated", "setting": "EG7-OVA cells; cutaneous, SIINFEKL in undiluted DMSO, dibutylphthalate in acetone at same site 5 hr later, Figure 6", "result": "≤ 16", "unit": "days post-inoculation"},
      {"measurement": "protection against the tumor", "setting": "EG7-OVA cells; intravaginal topical application, SIINFEKL in acetone and dibutylphthalate, Figure 5", "result": "complete protection"},
      {"measurement": "immunity against the EL4 tumor cells", "setting": "EL4 tumor cells", "result": "no immunity"}
    ]},
    {"compound": "CC12CCC(CC1=O)C2(C)C", "note": "(stereo not shown) [C, camphor]", "values": [
      {"measurement": "Total MHC class II^th cells, distance from the positive control, dibutylphthalate (DBP)", "setting": "Langerhans cells", "result": "≤ 1", "unit": "standard deviation"}
    ]},
    {"compound": "CCCCOC(=O)[C@@H](O)[C@H](O)C(=O)OCCCC", "note": "[DBT, dibutyl-D-tartrate]", "values": [
      {"measurement": "Total MHC class II^th cells, distance from the positive control, dibutylphthalate (DBP)", "setting": "Langerhans cells", "result": "≤ 1", "unit": "standard deviation"}
    ]},
    {"compound": "C[S+](C)[O-]", "note": "[DMSO, dimethylsulfoxide]", "values": [
      {"measurement": "FITC+ Langerhans cell number", "setting": "Langerhans cells", "result": "no enhancement"},
      {"measurement": "total dendritic cell migration into the lymph node / nonspecific immigration", "setting": "Langerhans cells", "result": "modest stimulatory effect"}
    ]},
    {"compound": "CCCCCCCCCOC(=O)c1ccccc1C(=O)OCCCCCCCCC", "note": "[DNP, dinonylphthalate]", "values": [
      {"measurement": "Total MHC class II^th cells, distance from the positive control, dibutylphthalate (DBP)", "setting": "Langerhans cells", "result": "≤ 1", "unit": "standard deviation"}
    ]},
    {"compound": "CCCCOC(=O)c1ccccc1C(=O)OCCCC", "note": "[dibutylphthalate]", "values": [
      {"measurement": "FITC+ Langerhans cell number", "setting": "Langerhans cells", "result": "striking effect"},
      {"measurement": "total dendritic cell migration into the lymph node / nonspecific immigration", "setting": "Langerhans cells", "result": "striking effect"},
      {"measurement": "inhibiting tumor cell growth", "setting": "EG7-OVA cells; cutaneous topical acetone and dibutylphthalate without peptide, 5 × 10^5 EG7-OVA cells s.c.", "result": "none of the treatment protocols were effective"}
    ]},
    {"compound": "NC(=O)CC[C@@H]1NC(=O)[C@H](Cc2ccccc2)NC(=O)[C@H](Cc2ccc(O)cc2)NC(=O)[C@@H](N)CSSC[C@@H](C(=O)N2CCC[C@H]2C(=O)N[C@@H](CCCN=C(N)N)C(=O)NCC(N)=O)NC(=O)[C@H](CC(N)=O)NC1=O", "note": "[vassopressin]", "values": [
      {"measurement": "fraction that crossed the stratum corneum", "setting": "[1]", "result": "about 0.4 % per hour"}
    ]},
    {"compound": "Fluorescein isothiocyanate [FITC]", "values": [
      {"measurement": "time required for maximal rate of immigration into the lymph node", "setting": "Langerhans cells; after topical administration", "result": "48 to 72", "unit": "h"}
    ]},
    {"compound": "dibenzylbutylphthalate [DBBP]", "values": [
      {"measurement": "Total MHC class II^th cells, distance from the positive control, dibutylphthalate (DBP)", "setting": "Langerhans cells", "result": "≤ 1", "unit": "standard deviation"}
    ]}
  ]
}
